Source: patent US6365178B1, “Method of making pressure sensitive adhesive matrix patches for transdermal drug delivery using hydrophilic salts of drugs and hydrophobic pressure sensitive adhesive dispersions” (priority 1996, dated 2002)
Structures can show the parent of a compound that is named as a salt. One block for each compound: values may come before it.

What was measured:
[1] = Dissolution of drug substance in liquid adhesive or solvent during matrix preparation; format: physicochemical; conditions: for Dissolution in enhancer-acrylic adhesive solution: Example 6, DURO-TAK 2852 with propylene glycol/isopropyl myristate, 10% ketorolac on free acid basis; for Dissolution in organic solvent-based adhesives / Dissolution in water-based adhesive dispersions: Example 1, 5% (w/w) in dried film; for Dissolution in organic solvent-based adhesives: MA-24, DUROTAK 2979; for Dissolution in water-based adhesive dispersions: PIB-500, NACOR 72-9965
Procedure: Pressure sensitive adhesive matrix systems described herein were prepared as follows. First, the solids content of a water-based or solvent-based adhesive in liquid form was determined by placing a known weight of liquid in a weighed aluminum dish and evaporating the solvents overnight in a 70° C. convection oven. The content of solid adhesive in the liquid was calculated by dividing the adhesive solid weight after drying by the initial total liquid weight. In some cases, the polyisobutylene (PIB) adhesives were prepared from polyisobutylene solids. […] Next, a weighed quantity of adhesive liquid was added to a glass bottle, and the solid adhesive weight was calculated from the known solid fraction of the given adhesive liquid. The drug substance (hydrophilic salt or free drug form) was weighed and added to the adhesive solution in a quantity necessary to achieve a selected dry matrix film composition. The liquid containing the adhesive polymer drug substance was then mixed overnight. […] The cast was dried in a 70° C. convection oven for 15-30 minutes to yield a dried matrix onto which an 0.08 mm thick polyethylene backing film was laminated. These matrix systems were then used to conduct in vitro skin flux experiments as described below.

[2] = In vitro skin flux, modified Franz non-jacketed diffusion cells; format: in vitro ADME, human; conditions: Example 6, DURO-TAK 2852 patch; for Average cumulative amount of ketorolac released after 24 hours / In vitro skin flux of ketorolac: 10% ketorolac on free acid basis, 8% enhancer (propylene glycol/isopropyl myristate); for In vitro skin flux of ketorolac: Mean±SD, n=2/10 skins/diffusion cells
Procedure: In vitro skin flux studies were conducted using human cadaver epidermal membrane in modified Franz non-jacketed diffusion cells. […] This method involves the exposure of the fullthickness skin to water at 60° C. for 60 seconds. After this period, the epidermal membrane was gently peeled from the dermis and stored in aluminum foil at −5 ° C. Prior to skin permeation experiments, the silanized release liner was removed from the adhesive matrix system, and the adhesive was affixed to the stratum corneum side of the thawed epidermal membrane, which was then cut to an appropriate size and placed between the two halves of the diffusion cell with the stratum corneum facing the donor compartment.
The receiver compartment was filled with water or an aqueous buffer appropriate to maintain sink conditions for the drug. All receiver media included 0.02% (w/w) sodium azide to inhibit bacterial growth. The diffusion cell was placed in a temperature controlled circulating water bath calibrated to maintain the surface temperature of the skin at 32° C. The receiver compartment was constantly stirred by a magnetic stir bar in the receiver compartment agitated by a magnetic stirring module placed under the water bath. At predetermined sampling intervals, the entire contents of the receiver compartment were collected for drug quantitation, and the receiver compartment was filled with fresh receiver solution, taking care to eliminate any air bubbles at the skin/solution interface.
The cumulative amount of drug permeated per unit area at any time t (Qt, μg/cm^2) was determined according to the following equation: [formula]
where Ct (μg/cm^3) is the concentration of the receiver compartment at sample time t (hours), V is the volume of the receiver compartment of the diffusion cell (6.3 cm^3), and A is the diffusional area of the cell (0.64 cm^2).

[3] = Visual/microscopic observation of matrix films for drug crystals after preparation and on storage (physical stability); format: physicochemical; conditions: for Drug crystals in adhesive matrix/laminate: Example 6, DURO-TAK 2852 with propylene glycol/isopropyl myristate, 10% ketorolac on free acid basis, visual and microscopic; for Drug crystals in dried films: organic solvent-based adhesives MA-24, DUROTAK 2979
Procedure: As used herein, “physical stability” of a drug in a matrix patch includes the lack of recrystallization of the drug in the dried adhesive layer of the patch.
Pressure sensitive adhesive matrix systems described herein were prepared as follows. First, the solids content of a water-based or solvent-based adhesive in liquid form was determined by placing a known weight of liquid in a weighed aluminum dish and evaporating the solvents overnight in a 70° C. convection oven. The content of solid adhesive in the liquid was calculated by dividing the adhesive solid weight after drying by the initial total liquid weight. In some cases, the polyisobutylene (PIB) adhesives were prepared from polyisobutylene solids. The solid PIB was first dissolved in heptane to achieve a final solid content of about 30% by weight, and then the exact solid content was determined as described above. Next, a weighed quantity of adhesive liquid was added to a glass bottle, and the solid adhesive weight was calculated from the known solid fraction of the given adhesive liquid. The drug substance (hydrophilic salt or free drug form) was weighed and added to the adhesive solution in a quantity necessary to achieve a selected dry matrix film composition. The liquid containing the adhesive polymer drug substance was then mixed overnight. […] After mixing, approximately 8 ml of the solution was dispensed on a silanized polyester release liner and film cast using a casting knife with a gap size appropriate to achieve a final dried thickness of approximately 0.05-0.1 mm. The cast was dried in a 70° C. convection oven for 15-30 minutes to yield a dried matrix onto which an 0.08 mm thick polyethylene backing film was laminated. These matrix systems were then used to conduct in vitro skin flux experiments as described below. […]
The systems manufactured with the salt and the water-based adhesive dispersions were stored at room temperature and examined using optical microscopy at 100× magnification for the presence of drug crystals.

[4] = disclosed in U.S. Pat. No. 5,589,498 (Example 2); cited from earlier work
[5] = Example 5, NACOR 72-9965, 1% (w/w)
[6] = Example 5, TSR, equivalent to 1% (w/w) tromethamine salt
[7] = Example 2, NACOR 72-9965, 1% or 2% (w/w)
[8] = Example 2, TSR and DURO-TAK 2516, 1% or 2% (w/w)
[9] = 5% (w/w) drug in Lord PIB-500 (water-based PIB) matrix, room temperature, microscopic
[10] = Example 7, TSR, equivalent to 1% or 2% (w/w) diclofenac sodium

Dissolution in water/emulsion system [1, 5]: dissolved completely | Dissolution in organic solvent system [1, 6]: did not completely dissolve | Dissolution in enhancer-acrylic adhesive solution [1]: does not dissolve | Average cumulative amount of ketorolac released after 24 hours [2]: 171.6±49.0 μg/cm^2 | In vitro skin flux of ketorolac [2]: 7.5±2.2 μg/cm^2/h | Ketorolac flux as % of the flux observed with the system prepared with the free acid ([2]; 14.9% ketorolac tromethamine): 30% | Drug crystals in dried matrix [3, 5]: free of drug crystals | Drug crystals in dried matrix [3, 6]: contained crystallized drug
SMILES: O=C(c1ccccc1)c1ccc2n1CCC2C(=O)O (stereo not shown) [ketorolac tromethamine]
Drug crystals in adhesive matrix/laminate [3]: visibly cloudy and extensive crystals were visible

Dissolution in organic solvent system [1, 10]: not sufficiently soluble | Drug crystals in dried matrix [3, 10]: contained crystallized drug
SMILES: O=C(O)Cc1ccccc1Nc1c(Cl)cccc1Cl [diclofenac sodium]
Drug crystals in dried matrices ([3]; Example 7, water-based NACOR 72-9965 and ROBOND PS20, 1% or 2% (w/w)): physically stable and visually free of drug crystals

Dissolution in organic solvent system [1, 6]: completely dissolved | Dissolution in enhancer-acrylic adhesive solution [1]: formed a homogeneous solution | Average cumulative amount of ketorolac released after 24 hours [2]: 583.3±94.6 μg/cm^2 | In vitro skin flux of ketorolac [2]: 25.4±4.2 μg/cm^2/h | Drug crystals in dried matrix [3, 6]: visually free of any crystals
SMILES: O=C(c1ccccc1)c1ccc2n1CCC2C(=O)O (stereo not shown) [Ketorolac free acid, ketorolac]
24 hour cumulative release [4]: 461.7±83.8 | Flux [4]: 21.6±3.6 μg/cm^2/h | Drug crystals in adhesive matrix/laminate [3]: visibly homogeneous and free from crystals

Further lines, the compound ahead of its results:

SMILES: O=C1CC2(CCCC2)CC(=O)N1CCCCN1CCN(c2ncccn2)CC1 [Buspirone HCl, buspirone hydrochloride]
Dissolution in organic solvent-based adhesives ([1]; hydrochloride): did not dissolve | Dissolution in water-based adhesive dispersions ([1]; hydrochloride): dissolved readily | Dissolution in water-based adhesive dispersion [1, 7]: dissolved completely | Dissolution in organic solvents of solvent-based adhesives [1, 8]: did not dissolve completely | Dissolution in acetone ([1]; Example 3, 0.70 g in 9.2 g acetone): did not completely dissolve | Dissolution in acetone/isocetyl alcohol mixture ([1]; Example 3, 0.70 g, 9.2 g acetone, 6.1 g isocetyl alcohol): did not completely dissolve | Dissolution in acetone/isocetyl alcohol/PIB adhesive mixture ([1]; Example 3, blended with MA-24 organic solvent-based PIB adhesive): did not completely dissolve | Results: dissolution in solvent and in solvent/isocetyl alcohol/PIB adhesive mixture ([1]; Table 6, Acetone 12.0 g, 0.7 g drug): Buspirone hydrochloride (0.7 g) did not dissolve in | Results: effect of addition of solvent solution PIB adhesive ([1]; Table 6, Chloroform): resulted in precipitation of buspirone, and the resulting | Results: dissolution in solvent and solvent/isocetyl alcohol mixture ([1]; Table 6, Chloroform 12.0 g, 0.7 g drug): Buspirone hydrochloride (0.7 g) dissolved in chloroform | Results: dissolution in solvent and in solvent/isocetyl alcohol/PIB adhesive mixture ([1]; Table 6, Ethyl acetate 12.0 g, 0.7 g drug): Buspirone hydrochloride (0.7 g) did not dissolve in | Results: behaviour of solvent/isocetyl alcohol/PIB adhesive mixture ([1]; Table 6, Methanol): phase separated | Results: dissolution in solvent ([1]; Table 6, Methanol 12.0 g, 0.7 g drug): Buspirone hydrochloride (0.7 g) dissolved in methanol | Results: dissolution in solvent and in solvent/isocetyl alcohol/PIB adhesive mixture ([1]; Table 6, Toluene 12.0 g, 0.7 g drug): Buspirone hydrochloride (0.7 g) did not dissolve in | Results: behaviour of solvent/isocetyl alcohol/adhesive solution ([1]; Table 6, Water): phase separated. The resulting cast contained distinct | Results: dissolution in solvent ([1]; Table 6, Water 1.5 g, 0.7 g drug): Buspirone hydrochloride (0.7 g) dissolved in water | Observations: no crystals observed after [3, 9]: No crystals observed after 7 weeks | Observations: drug crystals ([3]; 5% (w/w) drug in MA-24 (organic solvent-based PIB) matrix, immediately after preparation): crystals present | Drug crystals in dried films ([3]; Example 1, 5% (w/w), hydrochloride): filled with drug crystals | Drug crystals in dried film ([3]; Example 1, water-based adhesive dispersions PIB-500, NACOR 72-9965, 5% (w/w)): no crystals were found | Drug crystals in dried adhesive matrix [3, 7]: visibly free of drug crystals | Drug crystals in final dried casts [3, 8]: contained visible solid drug crystals | Drug crystals in laminate ([3]; PIB adhesive (MA-24)/buspirone hydrochloride/isocetyl alcohol 86/1.5/12.5% (w/w), naked eye and microscopic): filled with buspirone crystals | Results: buspirone crystals in resulting cast ([3]; Table 6, Chloroform): cast contained extensive buspirone crystals. | Results: buspirone crystals in resulting cast ([3]; Table 6, Ethyl acetate): resulting cast contained extensive buspirone crystals. | Results: casting of mixture ([3]; Table 6, Methanol, adhesive formed a gel-like ball): impossible to cast | Results: buspirone crystals in resulting cast ([3]; Table 6, Toluene): contained extensive buspirone crystals. | Results: buspirone crystallization in resulting cast ([3]; Table 6, Water, buspirone only in water-rich phase): extensively within 24 hours after casting.

SMILES: O=C1CC2(CCCC2)CC(=O)N1CCCCN1CCN(c2ncccn2)CC1 [Buspirone Free Base, buspirone]
Dissolution in organic solvent-based adhesives [1]: dissolved readily | Dissolution in water-based adhesive dispersions [1]: water insoluble | Observations: crystals form within [3, 9]: Crystals form within 3 days | Observations: crystals form within ([3]; 5% (w/w) drug in MA-24 (organic solvent-based PIB) matrix, room temperature, microscopic): Crystals form within 11 days | Drug crystals in dried films ([3]; Example 1, 5% (w/w)): visibly homogeneous and free from drug crystals | Recrystallization of buspirone in laminate ([3]; PIB adhesive (MA-24)/buspirone free base/isocetyl alcohol 86/1.5/12.5% (w/w), room temperature and 40° C./70%RH for 3 weeks, microscopic): No recrystallization of buspirone occurred

SMILES: Clc1cccc(Cl)c1N=C1NCCN1 [clonidine free base, clonidine]
Dissolution in organic solvent solution ([1]; Example 10, VISTANEX MM L-100/LM-MH PIB blend in organic solvents, equivalent to 2% (w/w) HCl salt): dissolved readily | Drug crystals in dry matrix film ([3]; Example 10, VISTANEX MM L-100/LM-MH PIB blend, equivalent to 2% (w/w) HCl salt): free from drug crystals

SMILES: CC(=O)CC(c1ccccc1)c1c(O)c2ccccc2oc1=O (stereo not shown) [Warfarin free drug, warfarin]
Dissolution in organic solvents ([1]; Example 8, TSR, 12% (w/w)): dissolved readily | Drug crystals in dry film ([3]; Example 8, TSR, 12% (w/w), visible and microscopic): free from drug crystals
